Assay: Lipophilicity, log D of compound at pH 7.4 by UPLC-MS/MS analysis
Type: physicochemical
Settings: buffer

| logD | SMILES |
| --- | --- |
| 0.7 | COC(=O)[C@@H]1CSCc2ccccc2C(=O)OC[C@H](NC(=O)[C@@H]2CCCN2C(C)=O)CN1 |
| 0.43 | COC(=O)[C@@H]1CSCc2ccccc2C(=O)OC[C@@H](NC(=O)[C@@H]2CCCN2C(C)=O)CN1 |
| 0.65 | COC(=O)[C@H]1CSCc2ccccc2C(=O)OC[C@H](NC(=O)[C@@H]2CCCN2C(C)=O)CN1 |
| 0.6 | COC(=O)[C@H]1CSCc2ccccc2C(=O)OC[C@@H](NC(=O)[C@@H]2CCCN2C(C)=O)CN1 |
